The record followed here is patent US12599672B2, “KRAS proteolysis targeting chimeras” (PAQ Therapeutics Inc., priority 2023, dated 2026).

Molecules are shown by their SMILES. Where only a bound is given, the exact number is not on record here.

What all share (type): cell-based
Assay [1] addresses T1, KRAS G12V (Homo sapiens, UniProt P01116, G12V).
T1 construct: SW620-KRAS (G12V)-HiBit-KI cell (Pharmaron); host or cells: SW620-KRAS (G12V)-HiBit-KI cells (HiBiT knock-in at the endogenous KRAS locus)
In words: KRAS G12V HiBit assay. Particulars: SW620-KRAS (G12V)-HiBit-KI cells, compound treatment for 24 hours, class symbols. The method, boiled down:
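Luminescence from lytic Nano-Glo HiBiT detection with LgBiT read KRAS G12V levels after 24 h compound exposure. Dilutions were 10-point, 3-fold, from a 0.3 mM DMSO stock. Degradation activity was normalised to cells given 0.1% DMSO alone.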
For orientation: The HiBiT peptide binds its large partner to form an active luciferase.

In assay [2] the target is T2, KRAS G12D (Homo sapiens, UniProt P01116, G12D).
T2 construct: AsPc-1-KRAS (G12D)-HiBit-KI cell (Pharmaron); host or cells: AsPc-1-KRAS (G12D)-HiBit-KI cells (HiBiT knock-in at the endogenous KRAS locus)
The experiment in a line: KRAS G12D HiBit assay. The following applies: AsPc-1-KRAS (G12D)-HiBit-KI cell, compound treatment for 24 hours; for DC50: absolute DC50. The method, boiled down:
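HiBiT luminescence, detected by adding lytic buffer, substrate and LgBiT protein, served as the KRAS G12D read-out. Compounds, serially diluted 3-fold over 10 points from 0.3 mM DMSO stock, were on cells for 24 h; percent inhibition normalized to cells given 0.1% DMSO only.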

Assay [3] addresses T3, KRAS (Homo sapiens, UniProt P01116).
T3 construct: endogenous in cells; host or cells: KE39 (KRAS amplified) cells
The experiment in a line: KRASamp MSD assay. Particulars: KE39 (KRAS amplified) cells, treated with test compounds for 24 hr, MSD readout of KRAS degradation. In a few lines:
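Degradation DC50 derived by curve fitting, with KRAS levels quantified by MSD electrochemiluminescence (capture/detection antibodies, recombinant WT KRAS standard). Lysates prepared from KE39 cells (KRAS amplified) exposed to test compounds for 24 hr.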

The mark [4] stands for this setting: numeric bounds given in place of class symbols.

T3 sequence (P01116 1-188 isoform P01116-2): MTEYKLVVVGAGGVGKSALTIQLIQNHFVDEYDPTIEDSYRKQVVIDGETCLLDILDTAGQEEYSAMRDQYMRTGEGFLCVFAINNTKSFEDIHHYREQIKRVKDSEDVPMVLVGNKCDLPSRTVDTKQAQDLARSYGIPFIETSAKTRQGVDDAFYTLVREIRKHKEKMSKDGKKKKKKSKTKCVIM
T1 sequence (P01116 1-188 isoform P01116-2 G12V): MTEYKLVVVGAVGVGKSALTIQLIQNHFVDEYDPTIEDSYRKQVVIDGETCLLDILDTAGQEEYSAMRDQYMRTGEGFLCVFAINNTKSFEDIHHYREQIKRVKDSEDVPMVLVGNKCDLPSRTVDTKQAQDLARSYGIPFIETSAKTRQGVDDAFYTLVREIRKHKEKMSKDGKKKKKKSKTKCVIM
T2 sequence (P01116 1-188 isoform P01116-2 G12D): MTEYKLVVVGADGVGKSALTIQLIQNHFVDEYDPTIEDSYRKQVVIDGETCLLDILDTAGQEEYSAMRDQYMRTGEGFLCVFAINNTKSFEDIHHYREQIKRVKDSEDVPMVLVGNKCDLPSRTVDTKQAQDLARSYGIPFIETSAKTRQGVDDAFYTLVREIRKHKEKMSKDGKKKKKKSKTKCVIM

On to `CCc1c(F)ccc2cc(O)cc(-c3ncc4c(N5CC6CC6C5)nc(OC[C@@]56CCCN5[C@H](COC(=O)N5CCC7(CC5)CC(N5CCC(c8ccc9c(c8)n(C)c(=O)n9C8CCC(=O)NC8=O)CC5)C7)CC6)nc4c3F)c12` (stereo partly drawn) [Compound 346, ((3S,7aS)-7a-(((4-(3-azabicyclo[3.1.0]hexan-3-yl)-7-(8-ethyl-7-fluoro-3-hydroxynaphthalen-1-yl)-8-fluoropyrido[4,3-d]pyrimidin-2-yl)oxy)methyl)hexahydro-1H-pyrrolizin-3-yl)methyl 2-(4-(1-(2,6-dioxopiperidin-3-yl)-3-methyl-2-oxo-2,3-dihydro-1H-benzo[d]imidazol-5-yl)piperidin-1-yl)-7-azaspiro[3.5]nonane-7-carboxylate], for which the DC50 in assay [1] was 10 to 100 nM; in assay [2] (class symbols), < 100 nM; in assay [3] it was 1 to 10 nM.
As for `C#Cc1c(F)ccc2cc(O)cc(-c3ncc4c(N5CCC[C@@](C)(O)C5)nc(OCC5(CN6CCN(CC7CCN(c8ccc9c(c8)C(=O)N(C8CCC(=O)NC8=O)C9=O)CC7)CC6)CC5)nc4c3F)c12` (stereo partly shown) [Compound 50], the DC50 in assay [1] is < 10 nM; in assay [2] (class symbols), < 100 nM; in assay [3], 1 to 10 nM.
`C#Cc1c(F)ccc2cc(O)cc(-c3ncc4c(N5CCC[C@@](C)(O)C5)nc(OC[C@@]56CCCN5[C@H](COC(=O)N5CCCC7(C5)CN(C5CCN(c8ccc9c(c8)n(C)c(=O)n9C8CCC(=O)NC8=O)CC5)C7)CC6)nc4c3F)c12` (stereo partly drawn) [Compound 328, ((3S,7aS)-7a-(((7-(8-ethynyl-7-fluoro-3-hydroxynaphthalen-1-yl)-8-fluoro-4-((R)-3-hydroxy-3-methylpiperidin-1-yl)pyrido[4,3-d]pyrimidin-2-yl)oxy)methyl)hexahydro-1H-pyrrolizin-3-yl)methyl 2-(1-(1-(2,6-dioxopiperidin-3-yl)-3-methyl-2-oxo-2,3-dihydro-1H-benzo[d]imidazol-5-yl)piperidin-4-yl)-2,6-diazaspiro[3.5]nonane-6-carboxylate]: the DC50 is > 100 nM in assay [1], > 100 nM in assay [2] (setting [4]) and ≥ 10 nM in assay [3].
Turning to `C#Cc1c(F)ccc2cc(O)cc(-c3ncc4c(N5CCC[C@@](C)(O)C5)nc(OC[C@@]56CCCN5[C@H](COC(=O)N5CCCC7(CN(CC8CCN(c9ccc%10c(c9)n(C)c(=O)n%10C9CCC(=O)NC9=O)CC8)C7)C5)CC6)nc4c3F)c12` (stereo partly drawn) [Compound 329, ((3S,7aS)-7a-(((7-(8-ethynyl-7-fluoro-3-hydroxynaphthalen-1-yl)-8-fluoro-4-((R)-3-hydroxy-3-methylpiperidin-1-yl)pyrido[4,3-d]pyrimidin-2-yl)oxy)methyl)hexahydro-1H-pyrrolizin-3-yl)methyl 2-((1-(1-(2,6-dioxopiperidin-3-yl)-3-methyl-2-oxo-2,3-dihydro-1H-benzo[d]imidazol-5-yl)piperidin-4-yl)methyl)-2,6-diazaspiro[3.5]nonane-6-carboxylate], the DC50 is > 100 nM in assay [1], > 100 nM in assay [2] (setting [4]) and ≥ 10 nM in assay [3].
As to `C#Cc1c(F)ccc2cc(O)cc(-c3ncc4c(N5CCC[C@@](C)(O)C5)nc(OC[C@@]56CCCN5[C@H](COC(=O)NC5CN(C7CCN(c8ccc9c(c8)n(C)c(=O)n9C8CCC(=O)NC8=O)CC7)C5)CC6)nc4c3F)c12` (stereo partly drawn) [Compound 325, ((3S,7aS)-7a-(((7-(8-ethynyl-7-fluoro-3-hydroxynaphthalen-1-yl)-8-fluoro-4-((R)-3-hydroxy-3-methylpiperidin-1-yl)pyrido[4,3-d]pyrimidin-2-yl)oxy)methyl)hexahydro-1H-pyrrolizin-3-yl)methyl (1-(1-(1-(2,6-dioxopiperidin-3-yl)-3-methyl-2-oxo-2,3-dihydro-1H-benzo[d]imidazol-5-yl)piperidin-4-yl)azetidin-3-yl)carbamate], the DC50 in assay [1] is > 100 nM; in assay [2] (setting [4]) it was > 100 nM; in assay [3] it was ≥ 10 nM.
Consider `CCc1c(F)ccc2cc(O)cc(-c3ncc4c(N5CCC[C@@](C)(O)C5)nc(OC[C@@]56CCCN5[C@H](COC(=O)N5CCC(CN7CCC(c8ccc9c(C%10CCC(=O)NC%10=O)nn(C)c9c8)CC7)CC5)CC6)nc4c3F)c12` (stereo partly drawn) [Compound 99, [(3S,8S)-8-[[7-(8-ethyl-7-fluoro-3-hydroxy-1-naphthyl)-8-fluoro-4-[(3R)-3-hydroxy-3-methyl-1-piperidyl]pyrido[4,3-d]pyrimidin-2-yl]oxymethyl]-1,2,3,5,6,7-hexahydropyrrolizin-3-yl]methyl 4-[[4-[3-(2,6-dioxo-3-piperidyl)-1-methyl-indazol-6-yl]-1-piperidyl]methyl]piperidine-1-carboxylate], for which the DC50 was < 10 nM in assay [1], < 100 nM in assay [2] (class symbols) and < 1 nM in assay [3]. The Dmax in assay [2] (class symbols) is > 50%.
For the molecule `C#Cc1c(F)ccc2cc(O)cc(-c3ncc4c(N5CCC[C@@](C)(O)C5)nc(OC[C@@]56CCCN5[C@H](COC(=O)N5CC7(CC(CN8CCC(c9ccc%10c(c9)n(C)c(=O)n%10C9CCC(=O)NC9=O)CC8)C7)C5)CC6)nc4c3F)c12` (stereo partly drawn) [Compound 418, ((3S,7aS)-7a-(((7-(8-ethynyl-7-fluoro-3-hydroxynaphthalen-1-yl)-8-fluoro-4-((R)-3-hydroxy-3-methylpiperidin-1-yl)pyrido[4,3-d]pyrimidin-2-yl)oxy)methyl)hexahydro-1H-pyrrolizin-3-yl)methyl 6-((4-(1-(2,6-dioxopiperidin-3-yl)-3-methyl-2-oxo-2,3-dihydro-1H-benzo[d]imidazol-5-yl)piperidin-1-yl)methyl)-2-azaspiro[3.3]heptane-2-carboxylate], the DC50 was < 10 nM in assay [1], < 100 nM in assay [2] (class symbols) and 1 to 10 nM in assay [3].
For `C#Cc1c(F)ccc2cc(O)cc(-c3ncc4c(N5CCC[C@@](C)(O)C5)nc(OC[C@@]56CCCN5[C@H](COC(=O)N5CCC57CCN(C5CCN(c8ccc9c(c8)n(C)c(=O)n9C8CCC(=O)NC8=O)CC5)CC7)CC6)nc4c3F)c12` (stereo partly drawn) [Compound 326, ((3S,7aS)-7a-(((7-(8-ethynyl-7-fluoro-3-hydroxynaphthalen-1-yl)-8-fluoro-4-((R)-3-hydroxy-3-methylpiperidin-1-yl)pyrido[4,3-d]pyrimidin-2-yl)oxy)methyl)hexahydro-1H-pyrrolizin-3-yl)methyl 7-(1-(1-(2,6-dioxopiperidin-3-yl)-3-methyl-2-oxo-2,3-dihydro-1H-benzo[d]imidazol-5-yl)piperidin-4-yl)-1,7-diazaspiro[3.5]nonane-1-carboxylate], the DC50 was > 100 nM in assay [1], > 100 nM in assay [2] (setting [4]) and ≥ 10 nM in assay [3].
For the molecule `CCc1c(F)ccc2cc(O)cc(-c3ncc4c(N5CCC[C@@](C)(O)C5)nc(OC[C@]56CCCN5[C@H](COC(=O)N5CCC(c7ccc8c(c7)n(C)c(=O)n8C7CCC(=O)NC7=O)CC5)CC6)nc4c3F)c12` (stereo partly drawn) [Compound 307, ((3S,7aR)-7a-(((7-(8-ethyl-7-fluoro-3-hydroxynaphthalen-1-yl)-8-fluoro-4-((R)-3-hydroxy-3-methylpiperidin-1-yl)pyrido[4,3-d]pyrimidin-2-yl)oxy)methyl)hexahydro-1H-pyrrolizin-3-yl)methyl 4-(1-(2,6-dioxopiperidin-3-yl)-3-methyl-2-oxo-2,3-dihydro-1H-benzo[d]imidazol-5-yl)piperidine-1-carboxylate], the DC50 in assay [1] is > 100 nM; in assay [2] (class symbols), < 100 nM; in assay [3], 1 to 10 nM.
The matching figures for `CCc1c(F)ccc2cc(O)cc(-c3ccc4c(N5CCC[C@@](C)(O)C5)nc(OC[C@@]56CCCN5[C@H](COC(=O)N5CCC7(CC5)CC(N5CCC(c8ccc9c(c8)n(C)c(=O)n9C8CCC(=O)NC8=O)CC5)C7)CC6)nc4c3F)c12` (stereo partly drawn) [Compound 355, ((3S,7aS)-7a-(((7-(8-ethyl-7-fluoro-3-hydroxynaphthalen-1-yl)-8-fluoro-4-((R)-3-hydroxy-3-methylpiperidin-1-yl)quinazolin-2-yl)oxy)methyl)hexahydro-1H-pyrrolizin-3-yl)methyl 2-(4-(1-(2,6-dioxopiperidin-3-yl)-3-methyl-2-oxo-2,3-dihydro-1H-benzo[d]imidazol-5-yl)piperidin-1-yl)-7-azaspiro[3.5]nonane-7-carboxylate]: < 10 nM, < 100 nM and < 1 nM.
Turning to `CCc1c(F)ccc2cc(O)cc(-c3ncc4c(N5CCC[C@@](C)(O)C5)nc(OC[C@]56CCCN5[C@H](COC(=O)NC5CCN(c7cccc8c7n(C)c(=O)n8C7CCC(=O)NC7=O)CC5)CC6)nc4c3F)c12` (stereo partly drawn) [Compound 311, ((3S,7aR)-7a-(((7-(8-ethyl-7-fluoro-3-hydroxynaphthalen-1-yl)-8-fluoro-4-((R)-3-hydroxy-3-methylpiperidin-1-yl)pyrido[4,3-d]pyrimidin-2-yl)oxy)methyl)hexahydro-1H-pyrrolizin-3-yl)methyl (1-(1-(2,6-dioxopiperidin-3-yl)-3-methyl-2-oxo-2,3-dihydro-1H-benzo[d]imidazol-4-yl)piperidin-4-yl)carbamate], the DC50 in assay [1] is > 100 nM; in assay [2] (class symbols), < 100 nM; in assay [3], ≥ 10 nM.
